Measured values published in PubChem BioAssay AID2060509 (Molecular Pharmacology Branch, DTP, NCI, 2025).

Test system: 485176-168-R4-J1-PDC spheroids with HUVEC/MSC, viability
Assay: Anticancer human tumor 485176-168-R4-J1-PDC patient-derived pancreatic adenocarcinoma cell line growth inhibition [GQUAD]
Settings: for IC50: curve of first compound; for viability, T/C: stronger effect = lower value
Method in brief: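 Multi-cell-type spheroids of tumor cells with HUVEC and mesenchymal stem cells, treated with drug combinations. Concentrations descend in half-log steps from near clinical Cmax, or from 10 microM where Cmax is unknown; viability read-out.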

[1] = second compound 0.0316 µM, first compound 0.0316 µM
[2] = second compound 0.0316 µM, first compound 0.1 µM
[3] = second compound 0.0316 µM, first compound 0.316 µM
[4] = second compound 0.0316 µM, first compound 1 µM
[5] = second compound 0.0316 µM, first compound 3.16 µM
[6] = second compound 0.0316 µM, first compound 10 µM
[7] = second compound 0.1 µM, first compound 0.0316 µM
[8] = second compound 0.1 µM, first compound 0.1 µM
[9] = second compound 0.1 µM, first compound 0.316 µM
[10] = second compound 0.1 µM, first compound 1 µM
[11] = second compound 0.1 µM, first compound 3.16 µM
[12] = second compound 0.1 µM, first compound 10 µM
[13] = second compound 0.316 µM, first compound 0.0316 µM
[14] = second compound 0.316 µM, first compound 0.1 µM
[15] = second compound 0.316 µM, first compound 0.316 µM
[16] = second compound 0.316 µM, first compound 1 µM
[17] = second compound 0.316 µM, first compound 3.16 µM
[18] = second compound 0.316 µM, first compound 10 µM
[19] = second compound 1 µM, first compound 0.0316 µM
[20] = second compound 1 µM, first compound 0.1 µM
[21] = second compound 1 µM, first compound 0.316 µM
[22] = second compound 1 µM, first compound 1 µM
[23] = second compound 1 µM, first compound 3.16 µM
[24] = second compound 1 µM, first compound 10 µM
[25] = second compound 3.16 µM, first compound 0.0316 µM
[26] = second compound 3.16 µM, first compound 0.1 µM
[27] = second compound 3.16 µM, first compound 0.316 µM
[28] = second compound 3.16 µM, first compound 1 µM
[29] = second compound 3.16 µM, first compound 3.16 µM
[30] = second compound 3.16 µM, first compound 10 µM
[31] = second compound 10 µM, first compound 0.0316 µM
[32] = second compound 10 µM, first compound 0.1 µM
[33] = second compound 10 µM, first compound 0.316 µM
[34] = second compound 10 µM, first compound 1 µM
[35] = second compound 10 µM, first compound 3.16 µM
[36] = second compound 10 µM, first compound 10 µM
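Also: spheroids exposed to compounds for seven days before readout.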
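For viability, T/C in this document: percent viability relative to DMSO vehicle control wells as 100%.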

CC1COCCN1c1cc(C2(S(C)(=N)=O)CC2)nc(-c2ccnc3[nH]ccc23)n1 (stereo not drawn) + Cc1[nH]c2ccc(F)cc2c1-c1nc2c3cccnc3c3ncccc3c2[nH]1
IC50 (second compound 0.0316 µM): 1.35 µM | IC50 (second compound 0.1 µM): 1.84 µM | IC50 (second compound 0.316 µM): 1.83 µM | IC50 (second compound 1 µM): 1.91 µM | IC50 (second compound 3.16 µM): 1.26 µM | IC50 (second compound 10 µM): 1.24 µM | viability, T/C [1]: 110% | viability, T/C [2]: 90.4% | viability, T/C [3]: 97.8% | viability, T/C [4]: 53.6% | viability, T/C [5]: 32% | viability, T/C [6]: 15.5% | viability, T/C [7]: 89.4% | viability, T/C [8]: 103% | viability, T/C [9]: 85.5% | viability, T/C [10]: 69.9% | viability, T/C [11]: 32.7% | viability, T/C [12]: 16.4% | viability, T/C [13]: 88.3% | viability, T/C [14]: 103% | viability, T/C [15]: 84.8% | viability, T/C [16]: 66.9% | viability, T/C [17]: 35.2% | viability, T/C [18]: 14.1% | viability, T/C [19]: 92% | viability, T/C [20]: 97.3% | viability, T/C [21]: 96.5% | viability, T/C [22]: 66.7% | viability, T/C [23]: 36.4% | viability, T/C [24]: 13.7% | viability, T/C [25]: 83.5% | viability, T/C [26]: 89.9% | viability, T/C [27]: 75.5% | viability, T/C [28]: 57.6% | viability, T/C [29]: 24.7% | viability, T/C [30]: 14.7% | viability, T/C [31]: 84.7% | viability, T/C [32]: 104% | viability, T/C [33]: 80.9% | viability, T/C [34]: 55.6% | viability, T/C [35]: 26.4% | viability, T/C [36]: 13.8%

Cc1cccc(N(C)C(=O)C2C(O)CCN2c2nc(C)cc(C(F)(F)F)c2C#N)c1 (stereo not drawn) + CN(C)c1ccc(Nc2c3ccc(NC(=O)CCN4CCCC4)cc3nc3cc(NC(=O)CCN4CCCC4)ccc23)cc1
IC50 (second compound 0.0316 µM): > 10 µM | IC50 (second compound 0.1 µM): > 10 µM | IC50 (second compound 0.316 µM): > 10 µM | IC50 (second compound 1 µM): > 10 µM | IC50 (second compound 3.16 µM): > 10 µM | IC50 (second compound 10 µM): > 10 µM | viability, T/C [1]: 103% | viability, T/C [2]: 93.5% | viability, T/C [3]: 86.2% | viability, T/C [4]: 105% | viability, T/C [5]: 111% | viability, T/C [6]: 102% | viability, T/C [7]: 91.9% | viability, T/C [8]: 102% | viability, T/C [9]: 98% | viability, T/C [10]: 84.2% | viability, T/C [11]: 94.3% | viability, T/C [12]: 98.9% | viability, T/C [13]: 106% | viability, T/C [14]: 89.1% | viability, T/C [15]: 109% | viability, T/C [16]: 109% | viability, T/C [17]: 118% | viability, T/C [18]: 94.3% | viability, T/C [19]: 93.5% | viability, T/C [20]: 93.6% | viability, T/C [21]: 104% | viability, T/C [22]: 112% | viability, T/C [23]: 101% | viability, T/C [24]: 85.6% | viability, T/C [25]: 110% | viability, T/C [26]: 95.4% | viability, T/C [27]: 80.6% | viability, T/C [28]: 94% | viability, T/C [29]: 111% | viability, T/C [30]: 98.2% | viability, T/C [31]: 97.3% | viability, T/C [32]: 93% | viability, T/C [33]: 81.1% | viability, T/C [34]: 86.7% | viability, T/C [35]: 62% | viability, T/C [36]: 59.2%

COc1cccc2c1C(=O)c1c(O)c3c(c(O)c1C2=O)CC(O)(C(=O)CO)CC3OC1CC(N)C(O)C(C)O1 (stereo not drawn) + Cc1[nH]c2ccc(F)cc2c1-c1nc2c3cccnc3c3ncccc3c2[nH]1
IC50 (second compound 0.0316 µM): 0.391 µM | IC50 (second compound 0.1 µM): 0.267 µM | IC50 (second compound 0.316 µM): 0.259 µM | IC50 (second compound 1 µM): 0.433 µM | IC50 (second compound 3.16 µM): 0.249 µM | IC50 (second compound 10 µM): 0.314 µM | viability, T/C [1]: 90.1% | viability, T/C [2]: 71.5% | viability, T/C [3]: 61.1% | viability, T/C [4]: 14.7% | viability, T/C [5]: 4.77% | viability, T/C [6]: 0.13% | viability, T/C [7]: 106% | viability, T/C [8]: 71.6% | viability, T/C [9]: 49.5% | viability, T/C [10]: 23.3% | viability, T/C [11]: 3.92% | viability, T/C [12]: 0.39% | viability, T/C [13]: 81.4% | viability, T/C [14]: 65.9% | viability, T/C [15]: 47.4% | viability, T/C [16]: 23.6% | viability, T/C [17]: 3.52% | viability, T/C [18]: 0.18% | viability, T/C [19]: 86.1% | viability, T/C [20]: 72.5% | viability, T/C [21]: 60.9% | viability, T/C [22]: 26.8% | viability, T/C [23]: 4.08% | viability, T/C [24]: 0.14% | viability, T/C [25]: 82.9% | viability, T/C [26]: 59.3% | viability, T/C [27]: 52% | viability, T/C [28]: 24.9% | viability, T/C [29]: 19.5% | viability, T/C [30]: 0.2% | viability, T/C [31]: 82% | viability, T/C [32]: 70.6% | viability, T/C [33]: 50.8% | viability, T/C [34]: 21.8% | viability, T/C [35]: 3.95% | viability, T/C [36]: 0.38%

COc1ccc([C@@H](O)c2cc(-c3ncnc4cc(N5CCOCC5)ccc34)c(F)cc2Cl)nn1 + CN(C)c1ccc(Nc2c3ccc(NC(=O)CCN4CCCC4)cc3nc3cc(NC(=O)CCN4CCCC4)ccc23)cc1
IC50 (second compound 0.0316 µM): 5.71 µM | IC50 (second compound 0.1 µM): 4.75 µM | IC50 (second compound 0.316 µM): 4.76 µM | IC50 (second compound 1 µM): 4.58 µM | IC50 (second compound 3.16 µM): 4.12 µM | IC50 (second compound 10 µM): 3.13 µM | viability, T/C [1]: 97.4% | viability, T/C [2]: 96.6% | viability, T/C [3]: 96.1% | viability, T/C [4]: 82.3% | viability, T/C [5]: 70.9% | viability, T/C [6]: 31.4% | viability, T/C [7]: 97.6% | viability, T/C [8]: 98.4% | viability, T/C [9]: 89.1% | viability, T/C [10]: 80.5% | viability, T/C [11]: 60.6% | viability, T/C [12]: 30.7% | viability, T/C [13]: 87% | viability, T/C [14]: 92.2% | viability, T/C [15]: 109% | viability, T/C [16]: 75.6% | viability, T/C [17]: 62.9% | viability, T/C [18]: 30.6% | viability, T/C [19]: 106% | viability, T/C [20]: 91.8% | viability, T/C [21]: 100% | viability, T/C [22]: 84.1% | viability, T/C [23]: 60.9% | viability, T/C [24]: 27.1% | viability, T/C [25]: 108% | viability, T/C [26]: 107% | viability, T/C [27]: 81.4% | viability, T/C [28]: 74.9% | viability, T/C [29]: 57.9% | viability, T/C [30]: 31.8% | viability, T/C [31]: 77.6% | viability, T/C [32]: 87.5% | viability, T/C [33]: 73.7% | viability, T/C [34]: 61.9% | viability, T/C [35]: 52.4% | viability, T/C [36]: 23.8%
